Laboratory results reported in US9688661B2, “Substituted pyrroles active as kinases inhibitors” (NERVIANO MEDICAL SCIENCES S.R.L., priority 2012, dated 2017).

Assays:
JAK1 kinase domain = JAK1 kinase domain (Homo sapiens (Human), UniProt P23458); assay: Biochemical assay for inhibitors of JAK kinase activity, JAK1; conditions: preactivated JAK1 kinase domain 2.5 nM, 100 μM ATP
Method: (§1) Specific JAK2, JAK1 or JAK3 peptide substrates are trans-phosphorylated by JAK kinases in the presence of ATP traced with 33P-γ-ATP. At the end of the phosphorylation reaction, the unreacted ATP, cold and radioactive, is captured by an excess of dowex ion exchange resin that eventually settles by gravity to the bottom of the reaction plate. The supernatant is subsequently withdrawn and transferred into a counting plate that is then evaluated by β-counting.
(§2) 500 g of wet resin (SIGMA, custom prepared resin DOWEX 1×8 200-400 mesh, 2.5 Kg) are weighed out and diluted 2 to 1 in 150 mM sodium formate, pH 3.00. The resin is allowed to settle down overnight and then the supernatant is discarded. After three washes as above over a couple of days, the resin is allowed to settle and two volumes (with respect to the resin volume) of 150 mM sodium formate buffer are added.
(§3) Kinase buffer was composed of 50 mM HEPES pH 7.5 containing 10 mM MgCl2, 2.5 mM DTT, 10 μM Na3VO4 and 0.2 mg/mL BSA.
Assays were performed with the JAK1 kinase domain (residues 861-1152 of the 1154 amino acid long full-length sequence, accession number P23458 of UniProtKB/Swiss-Prot database).
The JAK1 kinase domain was preactivated with ATP for 1 h at 28° C. in order to obtain a linear kinetic.
(§4) The peptidic substrate was purchased from American Peptide Company (Sunnyvale, Calif.).
(§5) Data are analyzed by Symix Assay Explorer software (Symix Technologies Inc.) that provides sigmoidal fitting algorithm of the 8 points dilutions curves for IC50 determination.

[1] = system: JAK2 independent human chronic myelogenous leukaemia cell line K562; assay: Cell proliferation assay, K562; format: cell-based; conditions: K562 cells, 72 hours, CellTiter-Glo, read-out: IC50 K-562
JAK2 kinase domain = JAK2 kinase domain (Homo sapiens (Human), UniProt O60674); assay: Biochemical assay for inhibitors of JAK kinase activity, JAK2; conditions: JAK2 kinase domain 1 nM, 60 μM ATP
Chain of JAK2 kinase domain (O60674 849-1124): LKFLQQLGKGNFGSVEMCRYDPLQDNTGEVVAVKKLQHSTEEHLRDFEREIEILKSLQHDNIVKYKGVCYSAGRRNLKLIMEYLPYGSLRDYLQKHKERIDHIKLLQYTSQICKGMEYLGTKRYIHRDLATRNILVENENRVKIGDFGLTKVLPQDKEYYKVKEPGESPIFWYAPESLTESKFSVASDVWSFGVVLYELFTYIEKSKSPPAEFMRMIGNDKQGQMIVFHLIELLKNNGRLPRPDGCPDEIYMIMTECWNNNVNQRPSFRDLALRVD
Method: as §1, §2, §3, §4, §5

[2] = system: JAK2 dependent human megakaryoblastic leukemia cell line SET-2; assay: Cell proliferation assay, SET-2; format: cell-based; conditions: SET-2 cells, 72 hours, CellTiter-Glo

Chain of JAK1 kinase domain (P23458 861-1152): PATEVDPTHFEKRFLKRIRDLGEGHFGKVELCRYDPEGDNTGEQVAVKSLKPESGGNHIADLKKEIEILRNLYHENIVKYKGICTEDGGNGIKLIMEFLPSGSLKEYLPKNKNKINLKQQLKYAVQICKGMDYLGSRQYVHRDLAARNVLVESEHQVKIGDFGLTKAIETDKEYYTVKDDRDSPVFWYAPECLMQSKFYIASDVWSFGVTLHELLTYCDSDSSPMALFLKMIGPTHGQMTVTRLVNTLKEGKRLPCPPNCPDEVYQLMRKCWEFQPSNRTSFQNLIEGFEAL

SMILES	IC50 (JAK1 kinase domain) [µM]	IC50 [1] [µM]	IC50 (JAK2 kinase domain) [µM]	IC50 [2] [µM]
CCc1ccc(Cl)cc1-n1cc(-c2cc(N)ncn2)cc1C#N [compd 47, 4-(6-Aminopyrimidin-4-yl)-1-(5-chloro-2-ethylphenyl)-1H-pyrrole-2-carbonitrile]	0.869	> 10	0.066	3.07
Cc1ccc(Cl)cc1-c1[nH]c(-c2cc(N)ncn2)cc1C(N)=O [compd 189, 5-(6-Aminopyrimidin-4-yl)-2-(5-chloro-2-methylphenyl)-1H-pyrrole-3-carboxamide]	0.139	> 10	0.019	0.89
Cc1ccc(C(F)(F)F)cc1-c1[nH]c(-c2cc(N)ncn2)cc1C(N)=O [compd 211, 5-(6-Aminopyrimidin-4-yl)-2-[2-methyl-5-(trifluoromethyl)phenyl]-1H-pyrrole-3-carboxamide]	0.108	> 10	0.011	0.59
CNc1cc(-c2cc(C(N)=O)c(-c3cc(C(F)(F)F)ccc3Cl)[nH]2)ncn1 [compd 205, 2-[2-Chloro-5-(trifluoromethyl)phenyl]-5-[6-(methylamino)pyrimidin-4-yl]-1H-pyrrole-3-carboxamide]	0.104	> 10	0.019	0.65
NC(=O)c1cc(-c2ncnc3[nH]ccc23)[nH]c1-c1cc(C(F)(F)F)ccc1Cl [compd 206, 2-[2-Chloro-5-(trifluoromethyl)phenyl]-5-(7H-pyrrolo[2,3-d]pyrimidin-4-yl)-1H-pyrrole-3-carboxamide]	0.14	> 10	0.019	0.7
NC(=O)c1cc(-c2cc(N)ncn2)[nH]c1-c1cc(C(F)(F)F)ccc1Cl [compd 204, 5-(6-Aminopyrimidin-4-yl)-2-[2-chloro-5-(trifluoromethyl)phenyl]-1H-pyrrole-3-carboxamide]	0.167	> 10	0.012	0.45

Second part, the compound after the results:

IC50 (JAK1 kinase domain) [µM]	IC50 [1] [µM]	IC50 (JAK2 kinase domain) [µM]	IC50 [2] [µM]	SMILES
0.048	> 10	0.021	0.46	CNc1cc(-c2cc(C(N)=O)c(-c3cc(C(F)(F)F)ccc3C)[nH]2)ncn1 [compd 212, 5-[6-(Methylamino)pyrimidin-4-yl]-2-[2-methyl-5-(trifluoromethyl)phenyl]-1H-pyrrole-3-carboxamide]
0.386	> 10	0.027	1.23	NC(=O)c1cc(-c2ncnc3[nH]cnc23)cn1-c1cc(C(F)(F)F)ccc1Cl [compd 245, 1-[2-Chloro-5-(trifluoromethyl)phenyl]-4-(9H-purin-6-yl)-1H-pyrrole-2-carboxamide]
1.08	> 10	0.071	1.57	NC(=O)c1cc(-c2cc(N)ncn2)cn1-c1cc(C(F)(F)F)ccc1Cl [compd 242, 4-(6-Aminopyrimidin-4-yl)-1-[2-chloro-5-(trifluoromethyl)phenyl]-1H-pyrrole-2-carboxamide]
0.595	> 10	0.073	2.36	Cc1ccc(Cl)cc1-n1cc(-c2cc(N)ncn2)cc1C(N)=O [compd 227, 4-(6-Aminopyrimidin-4-yl)-1-(5-chloro-2-methylphenyl)-1H-pyrrole-2-carboxamide]
0.063	> 10	0.025	0.35	CNC(=O)c1cc(-c2ncnc3[nH]ccc23)[nH]c1-c1cc(C(F)(F)F)ccc1C [compd 318, 2-[2-Methyl-5-(trifluoromethyl)phenyl]-N-methyl-5-(7H-pyrrolo[2,3-d]pyrimidin-4-yl)-1H-pyrrole-3-carboxamide]
0.991	–	–	–	NC(=O)c1cc(-c2ncnn3cccc23)cn1-c1cc(C(F)(F)F)ccc1Cl [compd 247, 1-[2-Chloro-5-(trifluoromethyl)phenyl]-4-(pyrrolo[2,1-f][1,2,4]triazin-4-yl)-1H-pyrrole-2-carboxamide]
